Assay [1] deals with TGF-β-stimulated SMAD3 phosphorylation in BEAS-2B cells. Briefly: Cellular ALK5 potency assay, inhibition of TGF-β stimulated pSMAD3 formation in BEAS-2B cells. The class given is cell-based. The note with it: Homo sapiens, inhibition of TGF-β (10 ng/mL) stimulated pSMAD3 formation, 1 hour compound incubation, read-out: BEAS2B pIC50 (converted). The procedure, abridged:
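Phospho-SMAD3 was quantified by AlphaLISA in lysates of human lung epithelial BEAS-2B cells. Compound was added 1 h (37 °C, HEPES/BSA-supplemented HBSS) before a 30 min challenge with 10 ng/mL TGF-β. Values are pIC50 relative to stimulated cells without compound.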

Assay [2] concerns the target T1, recombinant human ALK5 (TGF-βR1) protein (Homo sapiens, UniProt P36897).
T1 construct: purchased Life Technologies PR9075A
T1 sequence (P36897 34-503): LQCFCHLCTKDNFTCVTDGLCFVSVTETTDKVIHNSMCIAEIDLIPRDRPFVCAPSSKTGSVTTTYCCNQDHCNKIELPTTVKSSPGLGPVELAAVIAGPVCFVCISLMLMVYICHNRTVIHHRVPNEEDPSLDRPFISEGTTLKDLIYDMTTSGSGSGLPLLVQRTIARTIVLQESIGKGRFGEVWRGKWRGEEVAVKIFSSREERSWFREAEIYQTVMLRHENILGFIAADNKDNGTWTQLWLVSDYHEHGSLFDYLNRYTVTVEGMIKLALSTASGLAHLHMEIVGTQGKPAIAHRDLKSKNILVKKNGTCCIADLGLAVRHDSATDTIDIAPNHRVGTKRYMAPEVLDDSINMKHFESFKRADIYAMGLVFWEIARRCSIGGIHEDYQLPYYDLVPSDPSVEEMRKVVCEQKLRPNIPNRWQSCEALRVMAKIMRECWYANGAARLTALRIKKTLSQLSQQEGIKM
Briefly: Biochemical ALK5 (TGF-βR1) assay to measure pKi (LANCE Ultra ULight kinase assay). As to conditions: apparent pKi, converted from pIC50 using the Cheng-Prusoff equation. In short, it runs like this: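 TR-FRET kinase format: compound dose range 10 μM–25 pM equilibrated 60 min with human ALK5 and ULight-labelled topoisomerase 2α peptide in HEPES/MgCl2 buffer pH 7.5 with DTT. Reaction started with ATP (125 μM stock, 5× final), 60 min at 37° C, stopped with EDTA/Eu-anti-phospho antibody; pKi derived from pIC50 via Cheng-Prusoff.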
(In general: Time-resolved FRET reads energy transfer from a long-lived donor to a nearby acceptor.)

The structures appear in SMILES notation. Some results are limits rather than exact numbers.

`NC1CN(c2cnc3ccc(-c4c[nH]nc4-c4cc(Cl)ccc4F)nc3c2)C1` [Compound 1-52, 1-[6-[3-(5-chloro-2-fluoro-phenyl)-1H-pyrazol-4-yl]-1,5-naphthyridin-3-yl]azetidin-3-amine]: in assay [1], the IC50 was no more than 20 nM. In addition, the Ki in assay [2] was 0.0398 to 0.316 nM.
On to `CN(CCN1CCNCC1)c1cnc2ccc(-c3c[nH]nc3-c3cc(Cl)ccc3F)nc2c1` [Compound 1-53, 6-[3-(5-chloro-2-fluoro-phenyl)-1H-pyrazol-4-yl]-N-methyl-N-(2-piperazin-1-ylethyl)-1,5-naphthyridin-3-amine], for which the IC50 in assay [1] was 25.1 to 158 nM. In assay [2], the Ki was 0.0398 to 0.316 nM.
As for `Fc1ccc(Cl)cc1-c1n[nH]cc1-c1ccc2ncc(N3CC4CNCC43)cc2n1` (stereo not drawn) [Compound 1-54, 2-[3-(5-chloro-2-fluoro-phenyl)-1H-pyrazol-4-yl]-7-(3,6-diazabicyclo[3.2.0]heptan-6-yl)-1,5-naphthyridine], the IC50 in assay [1] was 25.1 to 158 nM. In addition, the Ki in assay [2] is 0.398 to 3.16 nM.
`NC1CCN(c2cnc3ccc(-c4c[nH]nc4-c4cc(Cl)ccc4F)nc3c2)C1` (stereo not drawn) [Compound 1-55, 1-[6-[3-(5-chloro-2-fluoro-phenyl)-1H-pyrazol-4-yl]-1,5-naphthyridin-3-yl]pyrrolidin-3-amine]: in assay [1], the IC50 is no more than 20 nM. For the same compound, in assay [2], the Ki is no more than 0.0316 nM.
Taken in the same sequence, the figures for `CNC1CCN(c2cnc3ccc(-c4c[nH]nc4-c4cc(Cl)ccc4F)nc3c2)C1` (stereo not drawn) [Compound 1-56, 1-[6-[3-(5-chloro-2-fluoro-phenyl)-1H-pyrazol-4-yl]-1,5-naphthyridin-3-yl]-N-methyl-pyrrolidin-3-amine] were no more than 20 nM and 0.0398 to 0.316 nM.
`NCCN1CCN(c2cnc3ccc(-c4c[nH]nc4-c4cc(Cl)ccc4F)nc3c2)CC1` [Compound 1-57, 2-[4-[6-[3-(5-chloro-2-fluoro-phenyl)-1H-pyrazol-4-yl]-1,5-naphthyridin-3-yl]piperazin-1-yl]ethanamine]: the IC50 in assay [1] was 25.1 to 158 nM. Moreover, the Ki in assay [2] is 0.0398 to 0.316 nM.
Consider `CNC(=O)[C@@H]1CN(c2cnc3ccc(-c4c[nH]nc4-c4cc(Cl)ccc4F)nc3c2)CCN1` [Compound 1-58, (2S)-4-[6-[3-(5-chloro-2-fluoro-phenyl)-1H-pyrazol-4-yl]-1,5-naphthyridin-3-yl]-N-methyl-piperazine-2-carboxamide], for which the IC50 in assay [1] was 25.1 to 158 nM. The Ki in assay [2] is 0.0398 to 0.316 nM.
For `COC(=O)[C@@H]1CN(c2cnc3ccc(-c4c[nH]nc4-c4cc(Cl)ccc4F)nc3c2)CCN1` [Compound 1-59, methyl (2S)-4-[6-[3-(5-chloro-2-fluoro-phenyl)-1H-pyrazol-4-yl]-1,5-naphthyridin-3-yl]piperazine-2-carboxylate], the IC50 in assay [1] is 25.1 to 158 nM. Besides, the Ki in assay [2] is 0.398 to 3.16 nM.
With `CNC1CCN(c2cnc3ccc(-c4c[nH]nc4-c4cc(Cl)ccc4F)nc3c2)CC1` [Compound 1-60, 1-[6-[3-(5-chloro-2-fluoro-phenyl)-1H-pyrazol-4-yl]-1,5-naphthyridin-3-yl]-N-methyl-piperidin-4-amine], the IC50 in assay [1] was 25.1 to 158 nM. The Ki in assay [2] is 0.0398 to 0.316 nM.
Take `CN(C)C(=O)[C@H]1CN(c2cnc3ccc(-c4c[nH]nc4-c4cc(Cl)ccc4F)nc3c2)CCN1` [Compound 1-61, (2R)-4-[6-[3-(5-chloro-2-fluoro-phenyl)-1H-pyrazol-4-yl]-1,5-naphthyridin-3-yl]-N,N-dimethyl-piperazine-2-carboxamide]: the IC50 in assay [1] is 25.1 to 158 nM. The Ki in assay [2] was 0.398 to 3.16 nM.
Consider `COC(=O)[C@H]1CN(c2cnc3ccc(-c4c[nH]nc4-c4cc(Cl)ccc4F)nc3c2)CCN1` [Compound 1-62, methyl (2R)-4-[6-[3-(5-chloro-2-fluoro-phenyl)-1H-pyrazol-4-yl]-1,5-naphthyridin-3-yl]piperazine-2-carboxylate], for which the IC50 in assay [1] is 25.1 to 158 nM. Moreover, in assay [2], the Ki was 0.398 to 3.16 nM.
Regarding `Fc1ccc(Cl)cc1-c1n[nH]cc1-c1ccc2ncc(N3CCCNCC3)cc2n1` [Compound 1-63, 2-[3-(5-chloro-2-fluoro-phenyl)-1H-pyrazol-4-yl]-7-(1,4-diazepan-1-yl)-1,5-naphthyridine], the IC50 in assay [1] is 25.1 to 158 nM. The Ki in assay [2] is 0.398 to 3.16 nM.
